Key:
[1] = system: C57BL/6J mice; test: Biotelemetry and head-twitch response (HTR) experiments; type: in vivo, mice (C57BL/6J males); conditions: male C57BL/6 mice, SC, several doses (0.03 to 30 mg/kg)
Description: Mice (C57BL/6J males) were purchased from the Jackson Laboratory (Bar Harbor, ME, USA) at 5-6 weeks of age and allowed at least 1-2 weeks to acclimate to the NIDA, Intramural Research Program (IRP), animal research facility in Baltimore, MD, USA. The animal facility is fully accredited by the Association for the Assessment and Accreditation of Laboratory Animal Care, and all procedures were approved by the NIDA IRP Animal Care and Use Committee. Mice were initially group housed 3-5 per cage during acclimation and housed in a 12 h light-dark cycle throughout the study, with lights on at 0700 h. Food and water were available ad libitum except during testing. Cohorts of 20-24 mice were used for each test drug. The mice were subjected to experimental testing once every 1-2 weeks for 2-3 months to complete dose-effect curves and antagonist experiments. A minimum of 7 days between treatments was utilized to avoid any tolerance to effects of repeated drug administration. All drug doses represent the weight of the salt dissolved in 0.9% saline vehicle. Mice were tested first in dose-response studies to assess the effects of each compound at doses from 0.03 to 30 mg/kg s.c. and were subsequently tested in antagonist reversal studies utilizing pretreatment with M100907 and WAY100635. All experiments were conducted from 0900 to 1700 local time during the light phase, as sensitivity of rodents to other tryptamine psychedelics is diurnal, with maximal HTR observed in the middle of the light phase. […]
Subcutaneous Temperature Transponder Implants. […] Temperature was determined noninvasively using a handheld receiver that is sensitive to signals emitted from the implanted transponders.
Prior to each experiment, mouse body weight and temperature were recorded. […] In dose-response studies, after a brief 5 min acclimation, mouse body temperature was recorded for baseline measurement, mice received s.c. injection of test substance or vehicle, and animals were returned to the testing arena for 30 min. During the session, locomotor activity was monitored via photobeam tracking of movements in the horizontal plane to yield distance traveled in centimeter. HTR was monitored by the analysis of GoPro Hero Black 7 video recordings (120 frames per see and 960p resolution) using a commercially available software package from Clever Sys Inc. (Reston, VA, USA).82 Post-treatment body temperature values were also recorded, and temperature data are represented as change from pretreatment baseline.
In antagonist reversal experiments, mice received a s.c. injection of either receptor antagonists or vehicle and were returned to the testing chamber for 30 min. During this period, locomotor activity was monitored to examine the potential effects of antagonist treatment on general behavior or movement. […]

[2] = target: T1, 5-HT2B receptor (Homo sapiens, UniProt P41595); test: 5-HT2B activation in a similar assay at a single 10 μM concentration; type: cell-based
T1 construct: host or cells: CHO-K1
T1 sequence (P41595 whole entry): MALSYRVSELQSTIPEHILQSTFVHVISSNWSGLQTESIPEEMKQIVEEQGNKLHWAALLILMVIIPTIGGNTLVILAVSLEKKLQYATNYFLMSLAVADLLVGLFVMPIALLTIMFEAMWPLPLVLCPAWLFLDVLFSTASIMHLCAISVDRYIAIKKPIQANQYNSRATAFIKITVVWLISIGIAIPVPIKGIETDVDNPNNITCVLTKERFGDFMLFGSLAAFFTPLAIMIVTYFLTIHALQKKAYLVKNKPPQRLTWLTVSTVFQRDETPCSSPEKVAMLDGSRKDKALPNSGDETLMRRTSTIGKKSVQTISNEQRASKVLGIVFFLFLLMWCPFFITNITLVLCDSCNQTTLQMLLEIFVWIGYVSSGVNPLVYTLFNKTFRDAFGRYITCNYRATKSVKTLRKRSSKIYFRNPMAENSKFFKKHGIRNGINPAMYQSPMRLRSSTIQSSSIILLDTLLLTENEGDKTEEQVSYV
Description: Activation data are provided in a similar assay tested at a single 10 μM concentration.

[3] = target: T2, 5-HT2C receptor (Homo sapiens, UniProt P28335); test: FLIPR Ca2+ flux functional assay, agonist activity at 5-HT2C; type: cell-based; conditions: stably transfected HEK293 cells
T2 construct: host or cells: HEK293
T2 sequence (P28335 33-458): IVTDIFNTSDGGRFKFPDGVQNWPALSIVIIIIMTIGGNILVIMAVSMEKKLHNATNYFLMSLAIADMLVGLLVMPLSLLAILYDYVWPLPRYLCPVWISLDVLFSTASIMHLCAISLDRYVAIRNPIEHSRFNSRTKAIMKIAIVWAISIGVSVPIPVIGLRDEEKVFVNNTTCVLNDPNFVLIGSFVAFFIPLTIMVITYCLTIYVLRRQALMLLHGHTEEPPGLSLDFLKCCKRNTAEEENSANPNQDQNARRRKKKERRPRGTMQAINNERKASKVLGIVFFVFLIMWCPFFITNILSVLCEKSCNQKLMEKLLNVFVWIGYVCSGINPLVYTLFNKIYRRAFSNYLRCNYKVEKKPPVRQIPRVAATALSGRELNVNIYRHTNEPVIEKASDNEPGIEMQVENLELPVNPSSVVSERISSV
Description: (§1) Functional assays 5-HT2A, 5-HT2B and 5-HT2C Receptors
(§2) Activity at 5-HT2A, 5-HT2B and 5-HT2C receptors was determined using a FLIPR Ca2+ flux assay at WuXi AppTec Co. Ltd. (Hong Kong) Discovery Biology Unit according to their standard protocols. Briefly, stably transfected cells expressing the receptor of interest (HEK293 for 5-HT2A and 5-HT2C; CHO-K1 for 5-HT2B) were grown and plated in a 384 well plate and incubated at 37° C. and 5% CO2 overnight. A 250 mM stock solution of probenecid in FLIPR calcium assay buffer (10 mL) was freshly prepared and combined with a fluorescent dye (Fluo-4 Direct) to give a final assay concentration of 2.5 mM. Reference compounds were 4-fold serially diluted and the screening compounds were 3-fold serially diluted in 100% DMSO for 10 points using Agilent Bravo, and 750 nL was added to a 384 well compound plate using Echo along with 30 μL assay buffer. The fluorescent dye was then added to the assay plate along with assay buffer to a final volume of 40 μL. The cell plate was incubated for 50 min at 37° C. and 5% CO2 and placed into the FLIPR Tetra along with the compound plate. 10 μL of references and compounds were then transferred from the compound plate into the cell plate and the fluorescent signal was read.

[4] = target: T3, 5-HT2A receptor (Homo sapiens, UniProt P28223); test: FLIPR Ca2+ flux functional assay, agonist activity at 5-HT2A; type: cell-based; conditions: stably transfected HEK293 cells
T3 construct: host or cells: HEK293
T3 sequence (P28223 whole entry): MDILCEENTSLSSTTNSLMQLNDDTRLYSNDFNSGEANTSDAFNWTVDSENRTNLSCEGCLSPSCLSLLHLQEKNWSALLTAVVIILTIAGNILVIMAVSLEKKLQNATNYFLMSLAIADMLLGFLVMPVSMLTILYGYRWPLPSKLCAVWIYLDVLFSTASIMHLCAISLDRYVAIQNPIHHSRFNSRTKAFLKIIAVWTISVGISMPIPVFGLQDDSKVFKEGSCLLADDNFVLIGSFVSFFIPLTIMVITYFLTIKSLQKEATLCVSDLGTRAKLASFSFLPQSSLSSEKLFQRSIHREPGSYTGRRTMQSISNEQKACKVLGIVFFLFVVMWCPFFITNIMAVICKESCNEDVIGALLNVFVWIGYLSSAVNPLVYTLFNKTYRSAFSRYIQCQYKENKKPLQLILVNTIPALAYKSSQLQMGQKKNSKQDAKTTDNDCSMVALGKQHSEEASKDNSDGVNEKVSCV
Description: as §1, §2

SMILES: COc1ccnc2[nH]cc(CCN(C)C)c12 [Compound P-4, 2-(4-methoxy-1H-pyrrolo[2,3-b]pyridin-3-yl)-N,N-dimethylethan-1-amine]
- Head-twitch response (HTR) [1]: not promoting increased head-twitch response
- Tolerability (temperature, locomotor activity, HTR; FIGS. 2-5) [1]: well-tolerated

SMILES: CCN(C)CCc1c[nH]c2ncc(OC(F)(F)F)cc12 [Compound S64, N-ethyl-N-methyl-2-(5-(trifluoromethoxy)-1H-pyrrolo[2,3-b]pyridin-3-yl)ethan-1-amine]
- 5-HT2B % Activation @ 10 μM [2]: 1%
- EC50 [3]: > 10000 nM
- Emax [3]: 0%
- EC50 [4]: 1670 nM
- Emax [4]: 47%

SMILES: CC(C)N(C)CCc1c[nH]c2ncc(OC(F)(F)F)cc12 [Compound S65, N-methyl-N-(2-(5-(trifluoromethoxy)-1H-pyrrolo[2,3-b]pyridin-3-yl)ethyl)propan-2-amine]
- 5-HT2B % Activation @ 10 μM [2]: 1%
- EC50 [3]: > 10000 nM
- Emax [3]: 0%
- EC50 [4]: 665 nM
- Emax [4]: 73%

SMILES: CCN(C)CCc1c[nH]c2ncc(C#N)cc12 [Compound S66, 3-(2-(ethyl(methyl)amino)ethyl)-1H-pyrrolo[2,3-b]pyridine-5-carbonitrile]
- 5-HT2B % Activation @ 10 μM [2]: 0%
- EC50 [3]: > 10000 nM
- Emax [3]: 1%
- EC50 [4]: 1170 nM
- Emax [4]: 65%

SMILES: CC(C)N(C)CCc1c[nH]c2ncc(C#N)cc12 [Compound S67, 3-(2-(isopropyl(methyl)amino)ethyl)-1H-pyrrolo[2,3-b]pyridine-5-carbonitrile]
- 5-HT2B % Activation @ 10 μM [2]: 4%
- EC50 [3]: > 10000 nM
- Emax [3]: 2%
- EC50 [4]: 609 nM
- Emax [4]: 80%

SMILES: CN(CCc1c[nH]c2ncc(C#N)cc12)C1CC1 [Compound S68, 3-(2-(cyclopropyl(methyl)amino)ethyl)-1H-pyrrolo[2,3-b]pyridine-5-carbonitrile]
- 5-HT2B % Activation @ 10 μM [2]: 11%
- EC50 [3]: 4570 nM
- Emax [3]: 44%
- EC50 [4]: 566 nM
- Emax [4]: 70%

SMILES: N#Cc1cnc2[nH]cc(CCN3CCCC3)c2c1 [Compound S69, 3-(2-(pyrrolidin-1-yl)ethyl)-1H-pyrrolo[2,3-b]pyridine-5-carbonitrile]
- 5-HT2B % Activation @ 10 μM [2]: 0%
- EC50 [3]: > 10000 nM
- Emax [3]: 0%
- EC50 [4]: 1470 nM
- Emax [4]: 86%

SMILES: N#Cc1cnc2[nH]cc(CCN3CCC3)c2c1 [Compound S70, 3-(2-(azetidin-1-yl)ethyl)-1H-pyrrolo[2,3-b]pyridine-5-carbonitrile]
- 5-HT2B % Activation @ 10 μM [2]: 0%
- EC50 [3]: > 10000 nM
- Emax [3]: 16%
- EC50 [4]: 681 nM
- Emax [4]: 78%

SMILES: CC1CCN1CCc1c[nH]c2ncc(C#N)cc12 (centres unmarked) [Compound S71, 3-(2-(2-methylazetidin-1-yl)ethyl)-1H-pyrrolo[2,3-b]pyridine-5-carbonitrile]
- 5-HT2B % Activation @ 10 μM [2]: 0%
- EC50 [3]: > 10000 nM
- Emax [3]: 9%
- EC50 [4]: 1140 nM
- Emax [4]: 81%

SMILES: N#Cc1cnc2[nH]cc(CCNCc3ccccc3F)c2c1 [Compound S72, 3-(2-((2-fluorobenzyl)amino)ethyl)-1H-pyrrolo[2,3-b]pyridine-5-carbonitrile]
- 5-HT2B % Activation @ 10 μM [2]: 0%
- EC50 [3]: 5070 nM
- Emax [3]: 47%
- EC50 [4]: 179 nM
- Emax [4]: 70%

SMILES: N#Cc1cnc2[nH]cc(CCNCc3cccc(F)c3)c2c1 [Compound S73, 3-(2-((3-fluorobenzyl)amino)ethyl)-1H-pyrrolo[2,3-b]pyridine-5-carbonitrile]
- 5-HT2B % Activation @ 10 μM [2]: 2%
- EC50 [3]: 7430 nM
- Emax [3]: 43%
- EC50 [4]: 134 nM
- Emax [4]: 66%

SMILES: COc1ccccc1CNCCc1c[nH]c2ncc(C#N)cc12 [Compound S74, 3-(2-((2-methoxybenzyl)amino)ethyl)-1H-pyrrolo[2,3-b]pyridine-5-carbonitrile]
- 5-HT2B % Activation @ 10 μM [2]: 15%
- EC50 [3]: 1880 nM
- Emax [3]: 88%
- EC50 [4]: 7.7 nM
- Emax [4]: 93%

SMILES: COc1cccc(CNCCc2c[nH]c3ncc(C#N)cc23)c1 [Compound S75, 3-(2-((3-methoxybenzyl)amino)ethyl)-1H-pyrrolo[2,3-b]pyridine-5-carbonitrile]
- 5-HT2B % Activation @ 10 μM [2]: 1%
- EC50 [3]: 3620 nM
- Emax [3]: 46%
- EC50 [4]: 44.4 nM
- Emax [4]: 79%

— US20250361233A1, “Compounds For Activating Serotonin Receptor” (PSYLO PTY LTD, priority 2023, published 2025)
